Measured values published in paper PMC10182956 (Archives of Toxicology, 2023).
“Also recorded” adds a separate entry of the source. Read-outs that look alike come from different tables or passages of the source.

Tests used:
HepaRG cells [1] = conditions: HepaRG 24 h; for Mitochondrial membrane potential response (in words): population level, threshold ± 2 standard deviations of the response at the two lowest concentrations
HepaRG cells [2] = assay: Cell viability assessment (WST-1 assay); format: cell-based, human; conditions: 95% CI in brackets
Description: Undifferentiated HepaRG cells were purchased from Biopredic international (Saint Grégoire, France). HepaRG cells have unlimited growth capacity and phenotypic stability, stable enzymatic activities over 4 weeks of cultivation, and similar metabolic function to primary human hepatocytes, and also avoid limitations of primary cells such as donor variability and phenotypic instability (Aninat et al. [2006]; Guillouzo et al. [2007]; Lambert et al. [2009]; Lübberstedt et al. [2011]; Andersson et al. [2012]). The line contains two cell types, hepatocyte-like and cholangiocyte-like cells (Parent et al. [2004]), which allows for elucidation of cell-specific toxicity (Jossé et al. [2008]). Cells were seeded at a density of approximately 27′000 cells/cm^2 into a 150 × 25 mm petri dish and were cultured for 2 weeks in William’s E medium (cat. nr.: 32,551,020, ThermoFisher Scientific, Massachusetts, USA) supplemented with 2 mM glutamine, 10% (v/v) fetal bovine serum (FBS) good forte (cat. nr.: P40-47,500, PAN-Biotech, Aidenbach, Germany), 100 U/ml penicillin and 100 µg/ml streptomycin (cat. nr.: 15,140,122, ThermoFisher Scientific, Massachusetts, USA), 5 µg/ml Gibco recombinant AOF insulin (cat. nr.: A11382II, ThermoFisher Scientific, Massachusetts, USA) and 50 µM hydrocortisone hemisuccinate (cat. nr.: H4881, Sigma-Aldrich, St. Louis, USA) at 37 °C and 5% CO2. Differentiation was induced by culturing the cells for another 2 weeks in the above mentioned medium supplemented with 1.7% DMSO. After 4 weeks in culture, differentiated HepaRG cells were seeded at a high density of approximately 227′000 cells/cm^2 (72,000 cells/well with 100 µl per well) into black 96-well plates with a clear bottom (cat.nr.: 3603, Corning, New York, USA) and maintained for 10 days. After 10 days, cells were first adapted to treatment medium (culture medium containing 0.5% DMSO and 2% FBS) for 48 h and then used for cell viability and high-content imaging analysis.
Cell viability was analyzed using the WST-1 assay which is based on the measurement of mitochondrial dehydrogenase activity (cat. nr: ab155902, Abcam, Cambridge, UK). HepaRG cells were exposed to chemicals at defined concentrations for 24 h. Triton X-100 (0.01%) was a positive control. One hour before the end of incubation period, 10 µl of WST-1 reagent was added to each well, quickly mixed by shaking the plate, and returned to the cell culture incubator (37 °C, 5% CO2). After 1 h, absorbance was measured (450 nm, reference wavelength 620 nm) using a plate reader (Infinite M200 Pro, Tecan group, Männerdorf, Switzerland). Absorbance was then subtracted from the reference wavelength, corrected for background by subtracting values measured without cells, and then normalized to the solvent control, which was set to 100%. Dose–response data were fitted using drc package (Version 3.0.1) (Ritz et al. [2015]) in R 3.6.1. Data were from at least 3 independent experiments with 6 technical replicates per condition.

HepaRG cells [3] = assay: High-content imaging assay: lipid accumulation (Bodipy lipid droplets); format: cell-based; conditions: for Lipid accumulation response (in words): population level, threshold ± 2 standard deviations of the response at the two lowest concentrations; for EC (BMC, 1 SD from control): read-out: LA: Benchmark concentration (µM) per imaging endpoint calculated with BMDS software
[4] = for OED: IVIVE derived median over all positive imaging endpoints, human simulation, Table 2; for OED (mg/kg BW/day): IVIVE derived median with 95% CI, from BMC of positive imaging endpoint, oral, daily dosing, Table 1; for OED compared with reported NOAEL, LOAEL concentrations or the exposure estimate (in words): human
HepaRG cells [5] = system: HepaRG cells
HepaRG cells [6] = conditions: for Oxidative stress response (in words): population level, threshold ± 2 standard deviations of the response at the two lowest concentrations; for OS: Benchmark concentration (µM) per imaging endpoint calculated with BMDS software: oxidative stress, Supplementary table 3
HepaRG cells [7] = assay: cells; conditions: Homo sapiens, 24 h, read-out: MMP: Benchmark concentration (µM) per imaging endpoint calculated with BMDS software
[8] = atrazine: increase relative liver weight, ref Aguilar et al. [2009], ATSDR [2003], Food and Authority [2009a], Food and Authority [2009b], cited from earlier work; for NOAEL from literature (mg/kg BW/day): first value of cell NOAEL/LOAEL; for LOAEL from literature (mg/kg BW/day): second value of cell NOAEL/LOAEL
[9] = cited from earlier work; for In vivo blood plasma conc.: ref Aguilar et al. [2009], D’Apolito et al. [2012], Li et al. [2009]; for In vivo Css: human, published, ref Birkett and Miners 1991, Graham et al. 2011, Freedman and Somberg 1991, Vasudev et al. 2001
HepaRG cells [10] = assay: cells; conditions: Homo sapiens, 24 h, read-out: NM: Benchmark concentration (µM) per imaging endpoint calculated with BMDS software
[11] = Homo sapiens, WST-1, 24 h exposure, food-related chemicals and pesticides, read-out: EC50 (95% CI) in µM from cell viability assay
[12] = Homo sapiens, 24 h exposure, reference chemicals, read-out: EC50 µM (95% CI) from cell viability (WST-1)
[13] = Homo sapiens, lipid accumulation, HepaRG 24 h, BMR one standard deviation from control mean, Table 1

## O=C(CO)[C@@H](O)[C@H](O)[C@H](O)CO [Fructose]
HepaRG cells [1]
  Mitochondrial membrane potential response (in words): dose-dependent increase in MMP exceeding the threshold
HepaRG cells [2]; [11]
  EC50: 6.6 µM
HepaRG cells [3]; HepaRG 24 h
  Lipid accumulation response (in words): did not stimulate lipid accumulation

## CC1=CC[C@@H](C(C)(C)O)CC1 [Alpha-terpineol]
HepaRG cells [2]; [11]
  EC50: 2560 µM

## C=C(C)[C@H]1Cc2c(ccc3c2O[C@@H]2COc4cc(OC)c(OC)cc4[C@@H]2C3=O)O1 [rotenone]
HepaRG cells [1]
  Concentration at which decrease of mitochondrial membrane potential exceeded the threshold: 2.5 µM
[4]
  OED: 0.3 mg/kg/day
HepaRG cells [2]; [12]
  EC50: 18.9 µM
HepaRG cells [3]; HepaRG 24 h
  Lipid accumulation response (in words): increased in a dose-dependent manner

## Cc1cccc(C)c1N(Cn1cccn1)C(=O)CCl [Metazachlor]
HepaRG cells [2]; [11]
  EC50: 183 µM
HepaRG cells [3]; HepaRG 24 h
  Lipid accumulation response (in words): induced significant lipid accumulation

## O=S(=O)(c1ccccc1)N(CC(F)(F)F)c1ccc(C(O)(C(F)(F)F)C(F)(F)F)cc1 [T0901317]
HepaRG cells [5]; HepaRG 24 h
  Concentration at which increase of number of apoptotic cells (nuclear morphology) exceeded the threshold: 40 µM
HepaRG cells [1]
  Mitochondrial membrane potential response (in words): decrease in MMP below the threshold
HepaRG cells [2]; 24 h exposure, reference chemicals, read-out: EC50 µM (95% CI) from cell viability (WST-1)
  EC50: 42.9 µM
HepaRG cells [3]; HepaRG 24 h
  Lipid accumulation response (in words): dose-dependently increased and exceeded the threshold
HepaRG cells [6]; HepaRG 24 h
  Concentration at which increase of oxidative stress exceeded the threshold: 40 µM

## CNC(=O)Oc1cccc2c1OC(C)(C)C2 [Carbofuran]
HepaRG cells [7]
  EC (BMC, 1 SD from control): 4980 µM
HepaRG cells [1]
  Mitochondrial membrane potential response (in words): dose-dependent increase in MMP exceeding the threshold
HepaRG cells [3]; HepaRG 24 h
  Lipid accumulation response (in words): did not stimulate lipid accumulation
[8]
  NOAEL from literature (mg/kg BW/day): 0.03–0.1 mg/kg BW/day
  LOAEL from literature (mg/kg BW/day): 0.1–0.3 mg/kg BW/day

## C=CC1(C)OC(=O)N(c2cc(Cl)cc(Cl)c2)C1=O (stereo not shown) [Vinclozolin]
HepaRG cells [3]; HepaRG 24 h
  Lipid accumulation response (in words): induced significant lipid accumulation

## CCNc1nc(Cl)nc(NC(C)C)n1 [Atrazine]
[4]
  OED (mg/kg BW/day): 0.5 (95% CI 0.2–1.7) mg/kg BW/day
HepaRG cells [3]; HepaRG 24 h
  Lipid accumulation response (in words): induced significant lipid accumulation
HepaRG cells [3]; [13]
  EC (BMC, 1 SD from control): 19 µM
[8]
  NOAEL from literature (mg/kg BW/day): 5 mg/kg BW/day

## O=C([O-])C1=NN(c2ccc(S(=O)(=O)[O-])cc2)C(=O)C1N=Nc1ccc(S(=O)(=O)[O-])cc1.[Na+].[Na+].[Na+] (stereo not shown) [Tartrazine]
HepaRG cells [3]; HepaRG 24 h
  Lipid accumulation response (in words): induced significant lipid accumulation

## O=C(O)c1cc(=O)[nH]c(=O)[nH]1 [Orotic acid]
HepaRG cells [7]
  EC (BMC, 1 SD from control): 423 µM
HepaRG cells [1]
  Mitochondrial membrane potential response (in words): dose-dependent increase in MMP exceeding the threshold
[4]
  OED (mg/kg BW/day): 61.2 (95% CI 21.1–134) mg/kg BW/day
  OED compared with reported NOAEL, LOAEL concentrations or the exposure estimate (in words): overlapped
HepaRG cells [3]; HepaRG 24 h
  Lipid accumulation response (in words): did not stimulate lipid accumulation
[8]
  NOAEL from literature (mg/kg BW/day): 50 mg/kg BW/day
  LOAEL from literature (mg/kg BW/day): 100 mg/kg BW/day
[9]
  In vivo blood plasma conc.: 0.15 to 0.3 µM

## N#Cc1nn(-c2c(Cl)cc(C(F)(F)F)cc2Cl)c(N)c1[S+]([O-])C(F)(F)F (stereo not shown) [Fipronil]
HepaRG cells [2]; [11]
  EC50: 21 µM

## CC(C)(c1ccc(O)cc1)c1ccc(O)cc1 [Bisphenol A]
HepaRG cells [2]; [11]
  EC50: 237 µM
HepaRG cells [3]; HepaRG 24 h
  Lipid accumulation response (in words): induced significant lipid accumulation

## CCCC(CCC)C(=O)O [valproic acid]
HepaRG cells [7]
  EC (BMC, 1 SD from control): 1310 µM
HepaRG cells [1]
  Mitochondrial membrane potential response (in words): did not affect MMP
[4]
  OED: 92.7 mg/kg/day
HepaRG cells [3]; HepaRG 24 h
  Lipid accumulation response (in words): accumulated in a dose-dependent manner above the threshold
HepaRG cells [3]; Homo sapiens, lipid accumulation, HepaRG 24 h, Supplementary table 3
  EC (BMC, 1 SD from control): 570 µM
[9]
  In vivo Css: 346.7 to 693.4 µM
HepaRG cells [6]; HepaRG 24 h
  Oxidative stress response (in words): no changes were observed
  OS: Benchmark concentration (µM) per imaging endpoint calculated with BMDS software: 1379.8 µM
HepaRG cells [10]
  EC (BMC): 612 µM

## CCCCc1oc2ccccc2c1C(=O)c1cc(I)c(OCCN(CC)CC)c(I)c1 [amiodarone]
HepaRG cells [7]
  EC (BMC, 1 SD from control): 13.8 µM
HepaRG cells [1]
  Concentration at which decrease of mitochondrial membrane potential exceeded the threshold: 25 µM
[4]
  OED: 15.8 mg/kg/day
HepaRG cells [3]; 24 h
  EC (BMC, 1 SD from control): 8.5 µM
HepaRG cells [3]; HepaRG 24 h
  Lipid accumulation response (in words): increased in a dose-dependent manner
[9]
  In vivo Css: 5.4 to 6.0 µM
HepaRG cells [6]; HepaRG 24 h
  Concentration at which increase of oxidative stress exceeded the threshold: 25 µM
  OS: Benchmark concentration (µM) per imaging endpoint calculated with BMDS software: 5.35 µM
HepaRG cells [10]
  EC (BMC): 14.9 µM

## O=[As][O-].[Na+] [Sodium arsenite]
HepaRG cells [5]
  Concentration at which increase of number of apoptotic cells (nuclear morphology) exceeded the threshold: 25 µM
HepaRG cells [6]
  Concentration at which increase of oxidative stress exceeded the threshold: 25 µM

## Cn1c(=O)c2c(ncn2C)n(C)c1=O [caffeine]
HepaRG cells [2]; [12]
  EC50: 6530 µM
HepaRG cells [3]; HepaRG 24 h
  Lipid accumulation response (in words): decrease of lipid accumulation that exceeded the threshold
HepaRG cells [3]; HepaRG 24 h, only at the highest concentration
  Concentration at which decrease of lipid accumulation exceeded the threshold: 5000 µM

## O=c1[nH]c(=O)c2[nH]c(=O)[nH]c2[nH]1 [Uric acid]
[4]
  OED (mg/kg BW/day): 87.3 (95% CI 67.3–150.6) mg/kg BW/day
HepaRG cells [3]; HepaRG 24 h
  Lipid accumulation response (in words): induced significant lipid accumulation
HepaRG cells [3]; [13]
  EC (BMC, 1 SD from control): 591 µM
[9]
  In vivo blood plasma conc.: 217 to 402 µM

## CCCCN(CCCC)SN(C)C(=O)Oc1cccc2c1OC(C)(C)C2 [Carbosulfan]
[4]
  OED (mg/kg BW/day): 10.4 (95% CI 7–19.3) mg/kg BW/day
  OED compared with reported NOAEL, LOAEL concentrations or the exposure estimate (in words): overlapped
HepaRG cells [3]; [13]
  EC (BMC, 1 SD from control): 77 µM
[8]
  NOAEL from literature (mg/kg BW/day): 0.5–1.2 mg/kg BW/day
  LOAEL from literature (mg/kg BW/day): 5–62 mg/kg BW/day

## N#CC(C#N)=NNc1ccc(OC(F)(F)F)cc1 [FCCP, carbonylcyanide-p-trifluoromethoxyphenylhydrazone]
HepaRG cells [1]
  Concentration at which decrease of mitochondrial membrane potential exceeded the threshold: 2.5 µM

## CCOC(=O)[C@@]1(CCCCCCOc2ccc(Cl)cc2)CO1 [etomoxir]
HepaRG cells [1]
  Concentration at which increase of MMP (hyperpolarization) was observed / exceeded the threshold: 36 µM
  Mitochondrial membrane potential response (in words): increased MMP
HepaRG cells [2]; [12]
  EC50: 144 µM
HepaRG cells [3]; HepaRG 24 h
  Lipid accumulation response (in words): neither induced lipid accumulation; also recorded: did not give rise to lipid accumulation
HepaRG cells [6]; HepaRG 24 h
  Oxidative stress response (in words): neither induced lipid accumulation, had any consistent impact on oxidative stress

## C[C@H](CCC(=O)O)[C@H]1CC[C@H]2[C@@H]3CC[C@@H]4C[C@H](O)CC[C@]4(C)[C@H]3C[C@H](O)[C@]12C [Deoxycholic acid]
HepaRG cells [2]; [11]
  EC50: 246 µM
